Experimental data as given in PMC3651166, “Differential Cytotoxic Activity of a Novel Palladium-Based Compound on Prostate Cell Lines, Primary Prostate Epithelial Cells and Prostate Stem Cells” (PLoS ONE, 2013).

Assays:
[1] = system: PNT2-C2, BPH-1, P4E6, PC-3 and LNCaP; test: Flow cytometry cell cycle analysis, cell lines; format: cell-based, human; conditions: PNT2-C2, PC3 and LNCaP cell lines, 48 h post-treatment
Experimental: (§1) Following drug treatment, floating cells in the media were pooled with adherent cells, which were collected by trypsinisation. Following centrifugation cells were resuspended in 0.5 ml PBS. Cells were fixed in 2 ml ice cold 70% ethanol, which was added in a dropwise fashion while vortexing. Cells were incubated on ice for 30 min then washed in 5 ml PBS and resuspended in 0.4 ml PBS. Following storage at 4°C overnight, 50 µl of RNAse (1 mg/ml) and 50 µl of propidium iodide (1 mg/ml) were added to the cells. Following incubation at 37°C for 30 min the cells were analysed for 2N and 4N DNA content on a flow cytometer (Cyan ADP Analyser, Beckman Coulter).

cleaved caspase-3 = test: Western blotting for apoptosis, cell lines; format: cell-based, human; conditions: BPH-1, PNT2-C2 and P4E6 cells
Experimental: (§2) Following drug treatment, cell lysates were harvested using Cytobuster Protein Extraction Reagent (71009, EMD Millipore, Darmstadt, Germany) with protease inhibitors (cOmplete, EDTA-free Protease Inhibitor Cocktail Tablets, Roche Applied Science, UK). 20 µg of protein extract were loaded on 12% SDS-PAGE gels and wet-transferred to a PVDF membrane. Antibodies used include: monoclonal anti-β-actin 1∶5000 (A5316, Sigma-Aldrich), anti-LC3B 1∶3000 (Ab51520, abcam), cleaved caspase-3 (Asp175) 1∶1000 (9661S, Cell Signaling Technology) and secondary antibodies were Rabbit anti-mouse-HRP 1∶10000 (P0260, Dako) and anti-rabbit IgG HRP-linked 1∶5000 (Cell Signaling Technology Inc. 7074S). Kaleidoscope protein marker was run on each gel (161-0324, Bio-Rad).

LC3-II [2] = test: Western blotting for autophagy, cell lines; format: cell-based, human; conditions: BPH-1, PNT2-C2 and P4E6 cells
Experimental: as §2

[3] = system: primary prostate epithelial cells; test: Flow cytometry cell cycle analysis, primary cells; format: cell-based, human; conditions: primary prostate epithelial cells, 48 h post-treatment
Experimental: as §1

LC3-II [4] = test: Western blotting and immunofluorescence for autophagy, primary cells; format: cell-based, human; conditions: all primary cells
Experimental: γH2AX staining: Cells were seeded onto 8-well collagen I-coated chamber slides. […] After blocking of non-specific binding with 2% BSA in PBS with 1% goat serum for 1 hour at RT, primary antibody (anti-phospho-histone H2A.X (Ser139), clone JBW301, Millipore, Cat no. 05–636) at 1∶1000 dilution was added in 3% BSA in PBS at 4°C overnight followed by three washes in 0.5% BSA in PBS with 0.175% Tween 20. Following incubation with secondary antibody (Goat anti-mouse Alexa Fluor 568, Invitrogen, Cat no. A-11004) at 1∶1000 dilution for 45 min in 3% BSA in PBS and three more washes in the same washing buffer, the slides were mounted using Vectashield with DAPI (Vector Laboratories, Cat no. H-1200). LC3-B staining: Cells were treated as above then fixed with 4% paraformaldehyde, followed by an incubation in 0.3% Triton X-100. After blocking with 10% normal goat serum, cells were incubated in anti-LC3B 1∶200 (Ab51520, abcam) diluted in 0.1% Triton X-100 in PBS. Secondary antibody was Alexa Fluor 568 goat anti-rabbit IgG 1∶1000 (Invitrogen A11011).

[5] = system: stem cells (SCs), transit-amplifying cells (TAs) and committed basal cells (CBs); test: ATP viability assay on fractionated primary cells; format: cell-based; conditions: 25 µM, ATP assay, not statistically significant
Experimental: Epithelial cells from human tumour or BPH materials were cultured for several weeks and the cells treated at very low passages. The cultured basal cell population were trypsinized, resuspended in SCM and then plated on BSA-blocked collagen I-coated plates. […] The cells that attached to substratum were trypsinised, resuspended in MACs buffer and incubated with CD133-microbeads (Cat no. 130-050-801, Miltenyi Biotec Inc., Auburn, CA, USA). MACs MS columns (Cat no. 130-042-201, Miltenyi Biotec Inc., Auburn, CA, USA) were used to select the CD133^+ and CD133^− cells. Finally, the three cell populations were obtained: stem cells (SCs) - α2β1integrin^hi/CD133^+, transit-amplifying cells (TAs) - α2β1integrin^hi/CD133^− and committed basal cells (CBs) - α2β1integrin^lo.
This assay was employed for the bioluminescent determination of the adenosine 5′-triphosphate (ATP) released from fractionated living cells (cancer stem cells, transit amplifying cells and committed basal cells). As ATP is rapidly degraded in dead cells, high intracellular levels provide a selective assay for living cells. The ATP-bioluminescent somatic cell assay kit (FLASC, Sigma-Aldrich, Saint Louis, MO, USA) was used with protocol modifications. Briefly, 50–500 cells per well were seeded in a collagen-coated 96 well plate in triplicate. After treating cells for 72 h, 150 µL of medium was removed from each well. 50 µL of cell extraction reagent was added into each original well. Following 20 min incubation at RT, 50 µL of cell extract was transferred to a white 96-well plate. Finally, 50 µL of ATP assay mix solution was added into the wells and luminescence was read using a plate reader (PolarStar Optima, BMG Labtech, UK). Percent viability was calculated using the formula (% Viability = [(Sample RLU/Control RLU)]x100 where RLU refers to relative light units.

breast cancer cells = system: breast cancer cells; parameters: method as in PMID 21885165; conditions: in vitro and in vivo; cited from earlier work

| SMILES | cell cycle effect [1] | cleaved caspase-3 (apoptosis) (cleaved caspase-3) | LC3-II expression (autophagy) (LC3-II [2]) | cell cycle effect [3] | LC3-II (autophagy) (LC3-II [4]) | viability of SCs versus TA and CB cells after treatment [5] | anti-growth activity (breast cancer cells) |
| --- | --- | --- | --- | --- | --- | --- | --- |
| N.N.[Cl][Pt][Cl] [Cisplatin, reference compound] | S phase arrest | clear induction of cleaved caspase-3 | did not significantly change levels of LC3-I and LC3-II | S phase arrest | no significant change in LC3-I or LC3-II levels | – | – |
| COc1cc([C@@H]2c3cc4c(cc3[C@@H](O[C@@H]3O[C@@H]5CO[C@@H](C)O[C@H]5[C@H](O)[C@H]3O)[C@H]3COC(=O)[C@H]23)OCO4)cc(OC)c1O [Etoposide, reference compound] | S phase arrest | clear induction of cleaved caspase-3 | did not significantly change levels of LC3-I and LC3-II | S phase arrest | – | SCs appeared to have increased viability compared to TA and CB cells | – |
| O.O.O.O.O=C1[N-]S(=O)(=O)c2ccccc21.O=C1c2ccccc2S(=O)(=O)[N]1[Pd+].c1ccc(-c2cccc(-c3ccccn3)n2)nc1 [[Pd(sac)(terpy)](sac)·4 H2O] | – | – | – | – | – | – | powerful anti-growth activity |
